Assay results as given in patent US8008260B2, “Methods of protecting against apoptosis using lipopeptides” (Cleveland Clinic Foundation, priority 2005, dated 2011).
Peptide text beside a SMILES is read from it. * marks the point of attachment. Propyl(2R-PamO,3-PamO) = CCCCCCCCCCCCCCCC(=O)OC[C@H](C*)OC(=O)CCCCCCCCCCCCCCC

Assays:
[1] = biological target: T1, TLR2/TLR6 heterodimer (Homo sapiens, UniProt O60603+Q9Y2C9); assay: NF-κB-dependent reporter activity in 293 cells expressing the TLR2/TLR6 heterodimer; assay type: cell-based; design: NF-κB activation: scale not given here
T1 construct: expressed in transfected cells; host or cells: 293 cells
Protocol: NF-κB-dependent reporter activity was measured in 293 cells that expressed the TLR2/YLR6 heterodimer. […] None of the non-palmitoylated corresponding peptides activated the NF-κB reporter (FIG. 18B). The peptide component of CBLB617 has a (−4) charge, which should prevent it from interacting with negatively charged cell surface markers. […] Table 5 summarizes the in vitro activity and solubility of all the compounds.

[2] = tested on: ICR mice; assay: Radioprotection against total body gamma irradiation (TBI), 30-day survival; assay type: in vivo
From the text: CBLB601, a R-Pam2-lipopeptide with the peptide moiety consisting of C-SKKKK (SEQ ID NO: 8), was selected for more detailed characterization as a radioprotector based upon its ability to activate NF-κB and preliminary in vivo data on radioprotection in NIH-SWISS mice (see Example 2). The objectives of this study were to determine the optimal dose, route of administration, and time of administration of CBLB601 to serve as a protector. ICR female mice of 10-15 weeks of age were used, with 10-15 animals per group or condition.
The optimal intraperitoneal administration schedule of CBLB601 was determined by injecting the compound at different times prior to irradiation. […] Therefore, all of the optimization experiments were performed with 10 Gy of total body irradiation (TBI). A dose of 3 μg of BCLB601/mouse (1/10 NOAEL) was chosen as the starting dose. Thus, 3 μg of CBLB601 was injected i.p. into ICR mice at 0.5 h, 1 h, 6 h, and 24 h or 1 h, 24 h, 48 h, 72 h, 96 h prior to 10 Gy of TBI (as described in Example 1). […] Injection of CBLB601 24 hrs before irradiation clearly yielded the best radioprotection (90-100% 30-day survival). When the compound was administered 48 hrs before irradiation, the radioprotection was ˜30%. Administration of CBLB601 at 1 hr prior to irradiation produced inconsistent results ranging from 80% protection in one experiment (FIG. 5B) to almost no protection (20%) in another experiment (FIG. 5A).
To determine the optimal radioprotective dose of CBLB601, the timing of injection and level of irradiation were kept constant, while the dose of CBLB601 was varied. ICR mice were injected i.p. with 1, 3, 10, 20, or 30 μg of CBLB601/mouse or 0.1, 0.3, 1, 3, 10, or […] 24 hrs prior to irradiation (10 Gy of TBI), and their survival was monitored for 30 days. The best protective dose was 3 μg/mouse, which supported a survival of 100% (FIGS. 6 A and B). […] Thus, the optimal protective dose of CBLB601 was determined to be 3 μg/mouse.
To determine the level of radiation that was protected by CBLB601, radioprotectant-treated and control mice were exposed to increasing levels of TBI. Groups of ICR mice were injected i.p. with either 3 μg CBLB601/mouse or PBS, and then 24 h later they received 10, 11, 12, 13, 14, and 15 Gy doses of TBI. Survival was recorded over 30 days. […] All of the mice irradiated with 10-11 Gy of TBI died between days 12-14 post irradiation, which was typical for death due to hematopoietic failure. All of the mice that received 14-15 Gy of TBI died between days 7-9 post irradiation, which was typical for mortality due to radiation-induced intestinal damage. Mice that were irradiated with 12-13 Gy of TBI died at intermediate times, which was typical for a mixed etiology of radiation-induced mortality. […] To reach a statistically significant 10% difference between control and CBLB601-treated mice, experimental groups of at least 50 mice must be used. Although CBLB601 rescued 100% of mice from 10 Gy of TBI, its protection at 11 Gy of TBI was only 20%. […] This may be indicative of a combined toxicity of the drug and the irradiation.
CBLB601 was administered intramuscularly to determine the optimal route of administration of this compound (especially since this would be the preferred route of administration for humans). […] In another experiment, increasing doses of CBLB601 administered i.m. were tested against 10, 11, and 12 Gy doses of […] (FIG. 9). […] A summary of the dose-dependency of the radioprotection of […] administered i.p. or i.m. 24 h prior to 10 Gy of TBI is shown in FIG. 10.
The optimal schedule of intramuscular administration of CBLB601 was determined by varying the time between drug delivery and irradiation. ICR mice were injected i.m. with 3 μg of CBLB601/mouse 24 h, 6 h, 3 h, and 1 h prior to TBI and +1 h, +3 h after TBI (FIG. 12A), as well as 48 h, 36 h, 24 h, 12 h, and 6 h prior to TBI (FIG. 12B). […]

[3] = Solubility of the lipopeptides
[4] = tested on: mice; assay: Mitigation of radiation injury, injection 1 hr after TBI; assay type: in vivo
Protocol: The ability of CBLB612 to serve as a mitigator of lower dose radiation injury was also examined. For this, 50 μg of CBLB612/mouse was injected intramuscularly 1 hr after exposure to 8.5, 9, or 10 Gy of TBI.

[5] = tested on: C57B1/6J mice; assay: Survival after gamma irradiation with p53 inhibitor pretreatment; assay type: in vivo; settings: 10 mg/kg i.p.
Protocol: To examine the role of p53 in radiation-induced death, mice were treated with the small molecule inhibitor of p53, pifithrin-alpha (PFTα) (Komarov et al., Science 285:1733-7, 1999) immediately prior to gamma irradiation. C57B1/6J mice (6-8 weeks old males were used here and below, if not indicated otherwise) were injected intraperitoneally with 10 mg/kg of PFTα and then irradiated using a Shepherd 4000 Ci ^137Cesium source at a dose rate of 4 Gy per minute.

T1 sequence (O60603 21-784): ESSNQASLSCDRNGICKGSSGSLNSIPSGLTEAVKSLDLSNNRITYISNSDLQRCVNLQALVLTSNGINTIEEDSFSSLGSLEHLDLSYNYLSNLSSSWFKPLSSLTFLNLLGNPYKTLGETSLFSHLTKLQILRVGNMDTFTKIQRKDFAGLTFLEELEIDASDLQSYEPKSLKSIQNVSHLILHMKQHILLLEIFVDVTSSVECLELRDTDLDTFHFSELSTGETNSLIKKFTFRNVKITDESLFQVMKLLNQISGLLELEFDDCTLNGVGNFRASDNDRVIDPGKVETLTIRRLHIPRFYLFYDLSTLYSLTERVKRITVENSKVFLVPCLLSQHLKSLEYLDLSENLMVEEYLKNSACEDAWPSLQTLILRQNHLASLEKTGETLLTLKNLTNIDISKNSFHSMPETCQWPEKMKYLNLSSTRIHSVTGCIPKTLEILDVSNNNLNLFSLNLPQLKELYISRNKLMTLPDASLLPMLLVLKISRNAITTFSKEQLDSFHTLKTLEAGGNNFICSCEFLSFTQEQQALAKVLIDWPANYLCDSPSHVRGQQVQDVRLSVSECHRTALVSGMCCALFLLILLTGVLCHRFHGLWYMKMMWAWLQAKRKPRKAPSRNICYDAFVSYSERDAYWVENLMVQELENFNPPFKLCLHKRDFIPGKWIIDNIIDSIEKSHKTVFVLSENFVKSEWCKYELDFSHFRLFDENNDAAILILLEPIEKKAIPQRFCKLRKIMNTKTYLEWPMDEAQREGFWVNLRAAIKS
T1 sequence (Q9Y2C9 32-796): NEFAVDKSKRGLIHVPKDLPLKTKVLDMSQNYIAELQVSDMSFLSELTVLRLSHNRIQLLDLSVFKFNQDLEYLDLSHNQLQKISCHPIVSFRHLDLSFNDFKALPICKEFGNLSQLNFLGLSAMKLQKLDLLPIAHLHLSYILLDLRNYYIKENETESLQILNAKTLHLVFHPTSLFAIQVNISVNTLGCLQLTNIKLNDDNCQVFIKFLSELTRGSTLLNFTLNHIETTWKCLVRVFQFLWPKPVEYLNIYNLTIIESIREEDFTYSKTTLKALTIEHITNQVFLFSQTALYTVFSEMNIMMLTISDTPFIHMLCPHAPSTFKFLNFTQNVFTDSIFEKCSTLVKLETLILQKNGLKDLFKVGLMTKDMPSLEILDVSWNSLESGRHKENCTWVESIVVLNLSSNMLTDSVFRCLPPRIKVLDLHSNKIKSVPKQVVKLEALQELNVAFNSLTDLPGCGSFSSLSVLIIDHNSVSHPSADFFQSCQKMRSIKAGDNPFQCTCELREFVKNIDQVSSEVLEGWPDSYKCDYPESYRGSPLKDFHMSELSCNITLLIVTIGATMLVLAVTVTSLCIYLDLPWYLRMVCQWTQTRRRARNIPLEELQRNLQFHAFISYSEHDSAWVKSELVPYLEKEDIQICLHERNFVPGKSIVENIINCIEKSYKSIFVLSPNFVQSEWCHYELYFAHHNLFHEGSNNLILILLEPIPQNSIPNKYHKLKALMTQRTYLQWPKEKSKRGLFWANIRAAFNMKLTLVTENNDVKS

Row | SMILES | activation of the NF-κB reporter (in words, compared with CBLB601) ([1]; 293 cells expressing TLR2/TLR6, various doses) | NF-κB activation ([1]; in vitro activity, 293 cells expressing TLR2/TLR6) | toxicity in combination with radiation ([2]; i.m. 24 hours before 10 Gy TBI) | rank of radioprotective potency ([2]; i.m. 24 hrs before 10 Gy TBI) | radioprotector quality compared with CBLB601 ([2]; mouse, in vivo) | therapeutic index ([2]; summary of Example 5) | Solubility [3] | survival rate versus PBS ([4]; 50 μg/mouse i.m. 1 hr after 8.5, 9 or 10 Gy TBI) | mice surviving to 27 days ([4]; 50 μg/mouse i.m. 1 hr after 8.5 Gy TBI) | mice surviving to 27 days ([4]; 50 μg/mouse i.m. 1 hr after 9 Gy TBI) | survival of irradiated mice ([5]; fractioned cumulative 12.5 Gy (5×2.5 Gy)) | survival of irradiated mice ([5]; single 9 Gy dose) | survival of irradiated mice ([5]; single 12.5 Gy) | survival of irradiated mice ([5]; single 25 Gy)
1 | CCCCCCCCCCCCCCCC(=O)OC[C@H](CSC[C@H](N)C(=O)N[C@H](C(=O)N[C@@H](CCC(N)=O)C(=O)NCC(=O)N[C@@H](CCC(=O)O)C(=O)N[C@@H](CCC(=O)O)C(=O)N[C@@H](CO)C(=O)N[C@@H](CC(N)=O)C(=O)N[C@@H](CC(=O)O)C(=O)N[C@@H](CCCCN)C(=O)O)C(C)C)OC(=O)CCCCCCCCCCCCCCC [CBLB612] (H-C(Propyl(2R-PamO,3-PamO))VQGEESNDK-OH) | better activators than CBLB601 | 200 | no toxicity in combination with radiation | CBLB612>CBLB614>CBLB615 | significantly better radioprotectors than CBLB601 | ~20 | Excellent | increased the survival rate at every dose of radiation | 90% | 70% |  |  |  | 
2 | Cc1ccc(C(=O)Cn2c3c(sc2=N)CCCC3)cc1 [PFTα, pifithrin-alpha] |  |  |  |  |  |  |  |  |  |  | protected mice | protected mice | no effect on the survival | no effect on the survival
